Experimental data: patent publication US20150017667A1, “MEANS AND METHODS FOR ASSESSING LIVER DISORDERS” (BASF SE, priority 2012, published 2015)
Marks after values point to notes of the source that are not given here.

Tested on: male rats
Experiment: 28-day repeated dose oral toxicity study (OECD 407) with GC-MS/LC-MS plasma metabolite profiling, male rats
Format: in vivo, rat
Settings: plasma
Source text: Drinking water was also offered ad libitum.
The samples were centrifuged for generation of plasma.

## CC(C)(Oc1ccc(CCNC(=O)c2ccc(Cl)cc2)cc1)C(=O)O [Bezafibrate]
Day 7
  3-O-Methylsphingosine (d18:1), ratio versus control: 0.48*
  5-O-Methylsphingosine (d18:1), ratio versus control: 0.4*
  14-Methylhexadecanoic acid, ratio versus control: 0.93
  16-Methylheptadecanoic acid, ratio versus control: 0.29*
  17-Methyloctadecanoic acid, ratio versus control: 0.24*
  Arachidonic acid (C20:cis[5,8,11,14]4), ratio versus control: 0.26*
  Arginine, ratio versus control: 0.65*
  Ascorbic acid, ratio versus control: 1.54*
  Behenic acid (C22:0), ratio versus control: 0.44*
  Campesterol, ratio versus control: 0.24*
  Cholesterol, ratio versus control: 0.37*
  Choline plasmalogen (C18,C20:4), ratio versus control: 0.47*
  Choline plasmalogen No 01, ratio versus control: 0.87*
  Choline plasmalogen No 02, ratio versus control: 0.46*
  Choline plasmalogen No 03, ratio versus control: 0.49*
  Coenzyme Q10, ratio versus control: 0.46*
  Cytosine, ratio versus control: 0.89*
  Docosapentaenoic acid (C22:cis[7,10,13,16,19]5), ratio versus control: 0.43*
  Eicosanoic acid (C20:0), ratio versus control: 0.51*
  Glucose, ratio versus control: 1.54*
  Glycine, ratio versus control: 1.79*
  Heptadecanoic acid (C17:0), ratio versus control: 0.69*
  Isopalmitic acid (C16:0), ratio versus control: 0.53*
  Kynurenic acid, ratio versus control: 1.89*
  Lignoceric acid (C24:0), ratio versus control: 0.54*
  Lysophosphatidylcholine (C17:0), ratio versus control: 0.51*
  Lysophosphatidylcholine (C18:0), ratio versus control: 0.79*
  Lysophosphatidylcholine (C18:2), ratio versus control: 1.4*
  Lysophosphatidylethanolamine (C22:0), ratio versus control: 0.27*
  Lysophosphatidylethanolamine (C22:5), ratio versus control: 1.59*
  Mannose, ratio versus control: 1.32*
  Metanephrine, ratio versus control: 0.5
  Nervonic acid (C24:cis[15]1), ratio versus control: 0.4*
  Normetanephrine, ratio versus control: 0.6*
  Pantothenic acid, ratio versus control: 2.36*
  Phosphatidylcholine (C18:0,C20:3), ratio versus control: 0.48*
  Phosphatidylcholine (C18:0,C20:4), ratio versus control: 0.78*
  Phosphatidylcholine (C18:2,C20:4), ratio versus control: 0.65*
  Phosphatidylcholine No 02, ratio versus control: 0.35*
  Phosphatidylcholine No 04, ratio versus control: 0.23*
  Sphingomyelin (d18:1,C16:0), ratio versus control: 0.88*
  Sphingomyelin (d18:2,C16:0), ratio versus control: 0.72*
  Stearic acid (C18:0), ratio versus control: 0.42*
  Tricosanoic acid (C23:0), ratio versus control: 0.5*
  beta-Sitosterol, ratio versus control: 0.24*
  dihomo-gamma-Linolenic acid (C20:cis[8,11,14]3), ratio versus control: 3.63*
  erythro-Sphingosine, ratio versus control: 0.49*
  myo-Inositol-2-phosphate, lipid fraction, ratio versus control: 0.28*
  threo-Sphingosine, ratio versus control: 0.56*
  trans-4-Hydroxyproline, ratio versus control: 0.71*
Day 7 (Table 3a)
  Lysophosphatidylcholine (C18:1), ratio versus control: 1.44*
  Phosphatidylcholine (C16:0,C20:5), ratio versus control: 1.4*
Day 7 (Table 3b)
  Docosahexaenoic acid (C22:cis[4,7,10,13,16,19]6), ratio versus control: 0.25*
  Phosphatidylcholine (C18:0,C22:6), ratio versus control: 0.36*
  alpha-Tocopherol, ratio versus control: 0.75*
Day 14
  3-O-Methylsphingosine (d18:1), ratio versus control: 0.44*
  5-O-Methylsphingosine (d18:1), ratio versus control: 0.41*
  14-Methylhexadecanoic acid, ratio versus control: 0.89*
  16-Methylheptadecanoic acid, ratio versus control: 0.25*
  17-Methyloctadecanoic acid, ratio versus control: 0.24*
  Arachidonic acid (C20:cis[5,8,11,14]4), ratio versus control: 0.31*
  Arginine, ratio versus control: 0.59*
  Ascorbic acid, ratio versus control: 1.32*
  Behenic acid (C22:0), ratio versus control: 0.58*
  Campesterol, ratio versus control: 0.31*
  Cholesterol, ratio versus control: 0.48*
  Choline plasmalogen (C18,C20:4), ratio versus control: 0.5*
  Choline plasmalogen No 01, ratio versus control: 0.82*
  Choline plasmalogen No 02, ratio versus control: 0.52*
  Choline plasmalogen No 03, ratio versus control: 0.63*
  Coenzyme Q10, ratio versus control: 0.58*
  Cytosine, ratio versus control: 0.84
  Docosapentaenoic acid (C22:cis[7,10,13,16,19]5), ratio versus control: 0.62*
  Eicosanoic acid (C20:0), ratio versus control: 0.67*
  Glucose, ratio versus control: 1.29*
  Glycine, ratio versus control: 1.58*
  Heptadecanoic acid (C17:0), ratio versus control: 0.83*
  Isopalmitic acid (C16:0), ratio versus control: 0.53*
  Kynurenic acid, ratio versus control: 5.15*
  Lignoceric acid (C24:0), ratio versus control: 0.44*
  Lysophosphatidylcholine (C17:0), ratio versus control: 0.51*
  Lysophosphatidylcholine (C18:0), ratio versus control: 0.85*
  Lysophosphatidylcholine (C18:2), ratio versus control: 1.68*
  Lysophosphatidylethanolamine (C22:0), ratio versus control: 0.32*
  Lysophosphatidylethanolamine (C22:5), ratio versus control: 1.9*
  Mannose, ratio versus control: 1.34*
  Metanephrine, ratio versus control: 0.44*
  Nervonic acid (C24:cis[15]1), ratio versus control: 0.44*
  Normetanephrine, ratio versus control: 0.5*
  Pantothenic acid, ratio versus control: 2.3*
  Phosphatidylcholine (C18:0,C20:3), ratio versus control: 0.56*
  Phosphatidylcholine (C18:0,C20:4), ratio versus control: 0.78
  Phosphatidylcholine (C18:2,C20:4), ratio versus control: 0.66*
  Phosphatidylcholine No 02, ratio versus control: 0.37*
  Phosphatidylcholine No 04, ratio versus control: 0.25*
  Sphingomyelin (d18:1,C16:0), ratio versus control: 0.83*
  Sphingomyelin (d18:2,C16:0), ratio versus control: 0.67*
  Stearic acid (C18:0), ratio versus control: 0.45*
  Tricosanoic acid (C23:0), ratio versus control: 0.72*
  beta-Sitosterol, ratio versus control: 0.3*
  dihomo-gamma-Linolenic acid (C20:cis[8,11,14]3), ratio versus control: 4.4*
  erythro-Sphingosine, ratio versus control: 0.4*
  myo-Inositol-2-phosphate, lipid fraction, ratio versus control: 0.37*
  threo-Sphingosine, ratio versus control: 0.52*
  trans-4-Hydroxyproline, ratio versus control: 0.57*
Day 14 (Table 3a)
  Lysophosphatidylcholine (C18:1), ratio versus control: 1.92*
  Phosphatidylcholine (C16:0,C20:5), ratio versus control: 1.4*
Day 14 (Table 3b)
  Docosahexaenoic acid (C22:cis[4,7,10,13,16,19]6), ratio versus control: 0.25*
  Phosphatidylcholine (C18:0,C22:6), ratio versus control: 0.33*
  alpha-Tocopherol, ratio versus control: 0.77*
Day 28
  3-O-Methylsphingosine (d18:1), ratio versus control: 0.39*
  5-O-Methylsphingosine (d18:1), ratio versus control: 0.4*
  14-Methylhexadecanoic acid, ratio versus control: 0.83*
  16-Methylheptadecanoic acid, ratio versus control: 0.16*
  17-Methyloctadecanoic acid, ratio versus control: 0.17*
  Arachidonic acid (C20:cis[5,8,11,14]4), ratio versus control: 0.29*
  Arginine, ratio versus control: 0.62*
  Ascorbic acid, ratio versus control: 1.55*
  Behenic acid (C22:0), ratio versus control: 0.51*
  Campesterol, ratio versus control: 0.21*
  Cholesterol, ratio versus control: 0.43*
  Choline plasmalogen (C18,C20:4), ratio versus control: 0.51*
  Choline plasmalogen No 01, ratio versus control: 0.55*
  Choline plasmalogen No 02, ratio versus control: 0.49*
  Choline plasmalogen No 03, ratio versus control: 0.54*
  Coenzyme Q10, ratio versus control: 0.48*
  Cytosine, ratio versus control: 0.79*
  Docosapentaenoic acid (C22:cis[7,10,13,16,19]5), ratio versus control: 0.31*
  Eicosanoic acid (C20:0), ratio versus control: 0.52*
  Glucose, ratio versus control: 1.32*
  Glycine, ratio versus control: 1.95*
  Heptadecanoic acid (C17:0), ratio versus control: 0.52*
  Isopalmitic acid (C16:0), ratio versus control: 0.47*
  Kynurenic acid, ratio versus control: 2.04*
  Lignoceric acid (C24:0), ratio versus control: 0.44*
  Lysophosphatidylcholine (C17:0), ratio versus control: 0.36*
  Lysophosphatidylcholine (C18:0), ratio versus control: 0.86*
  Lysophosphatidylcholine (C18:2), ratio versus control: 1.33*
  Lysophosphatidylethanolamine (C22:0), ratio versus control: 0.18*
  Lysophosphatidylethanolamine (C22:5), ratio versus control: 1.29*
  Mannose, ratio versus control: 1.23*
  Metanephrine, ratio versus control: 0.55*
  Nervonic acid (C24:cis[15]1), ratio versus control: 0.39*
  Normetanephrine, ratio versus control: 0.78*
  Pantothenic acid, ratio versus control: 3.51*
  Phosphatidylcholine (C18:0,C20:3), ratio versus control: 0.57*
  Phosphatidylcholine (C18:0,C20:4), ratio versus control: 0.75*
  Phosphatidylcholine (C18:2,C20:4), ratio versus control: 0.56*
  Phosphatidylcholine No 02, ratio versus control: 0.47*
  Phosphatidylcholine No 04, ratio versus control: 0.24*
  Sphingomyelin (d18:1,C16:0), ratio versus control: 0.71*
  Sphingomyelin (d18:2,C16:0), ratio versus control: 0.49*
  Stearic acid (C18:0), ratio versus control: 0.39*
  Tricosanoic acid (C23:0), ratio versus control: 0.54*
  beta-Sitosterol, ratio versus control: 0.2*
  dihomo-gamma-Linolenic acid (C20:cis[8,11,14]3), ratio versus control: 3.24*
  erythro-Sphingosine, ratio versus control: 0.43*
  myo-Inositol-2-phosphate, lipid fraction, ratio versus control: 0.38*
  threo-Sphingosine, ratio versus control: 0.55*
  trans-4-Hydroxyproline, ratio versus control: 0.72*
Day 28 (Table 3a)
  Lysophosphatidylcholine (C18:1), ratio versus control: 1.22*
  Phosphatidylcholine (C16:0,C20:5), ratio versus control: 1.21*
Day 28 (Table 3b)
  Docosahexaenoic acid (C22:cis[4,7,10,13,16,19]6), ratio versus control: 0.14*
  Phosphatidylcholine (C18:0,C22:6), ratio versus control: 0.27*
  alpha-Tocopherol, ratio versus control: 0.64*
